Measured values reported in PubChem BioAssay AID1745844 (Carcinogenic Potency Database (CPDB), 2022).
Where “and” joins values, the source holds several entries; their conditions need not be identical. Equal entries are not always repeated. Calls of active or inactive are those of the source. How the calls were made is not given here.

Test system: rodent lifetime carcinogenesis bioassay, tumor incidence TD50
Assay: chronic cancer bioassays in animals – CPDB, compiled studies (AID 1745844)
[1] = rat, strain Fischer 344, females, in feed, site: any site (literature study), lesion: several types, types named in the paper, dosed 104 weeks, study length 104 weeks

## CCCCCN(N=O)C(N)=O
rat, strain Donryu, females, in drinking water, site: all sites, lesion: myelocytic leukemia, dosed 65 weeks, study length 65 weeks
  TD50: 19.9 mg/kg/day
rat, strain Donryu, females, in drinking water, site: any site (literature study), lesion: several types, types named in the paper, dosed 65 weeks, study length 65 weeks
  TD50: 1.93 mg/kg/day
rat, strain Donryu, females, in drinking water, site: digestive tract, lesion: several types, types named in the paper, dosed 65 weeks, study length 65 weeks
  TD50: 1.15 mg/kg/day
rat, strain Donryu, females, in drinking water, site: esophagus, lesion: one or several types, types not named, dosed 65 weeks, study length 65 weeks
  TD50: 0.967 mg/kg/day
rat, strain Donryu, females, in drinking water, site: forestomach, lesion: one or several types, types not named, dosed 65 weeks, study length 65 weeks
  TD50: 1.35 mg/kg/day
rat, strain Donryu, females, in drinking water, site: liver, lesion: hepatocellular adenoma, dosed 65 weeks, study length 65 weeks
  TD50: 13.3 mg/kg/day
rat, strain Donryu, females, in drinking water, site: mammary gland, lesion: several types, types named in the paper, dosed 65 weeks, study length 65 weeks
  TD50: 11.9 mg/kg/day
rat, strain Donryu, males, in drinking water, site: all sites, lesion: myelocytic leukemia, dosed 65 weeks, study length 65 weeks
  TD50: 9.17 mg/kg/day
rat, strain Donryu, males, in drinking water, site: any site (literature study), lesion: several types, types named in the paper, dosed 65 weeks, study length 65 weeks
  TD50: 0.541 mg/kg/day
rat, strain Donryu, males, in drinking water, site: digestive tract, lesion: several types, types named in the paper, dosed 65 weeks, study length 65 weeks
  TD50: 0.532 mg/kg/day
rat, strain Donryu, males, in drinking water, site: esophagus, lesion: one or several types, types not named, dosed 65 weeks, study length 65 weeks
  TD50: 1.44 mg/kg/day
rat, strain Donryu, males, in drinking water, site: forestomach, lesion: one or several types, types not named, dosed 65 weeks, study length 65 weeks
  TD50: 0.532 mg/kg/day
rat, strain Fischer 344, females, by gavage, site: forestomach, lesion: one or several types, types not named, dosed 50 weeks, study length 104 weeks
  TD50: 0.478 mg/kg/day
rat, strain Fischer 344, females, by gavage, site: liver, lesion: one or several types, types not named, dosed 50 weeks, study length 104 weeks
  TD50: 4.7 mg/kg/day
rat, strain Fischer 344, females, by gavage, site: lung, lesion: several types, types named in the paper, dosed 50 weeks, study length 104 weeks
  TD50: 1.09 mg/kg/day
rat, strain Fischer 344, females, by gavage, site: mammary gland, lesion: adenocarcinoma, dosed 50 weeks, study length 104 weeks
  TD50: 2.98 mg/kg/day
rat, strain Fischer 344, females, by gavage, site: uterus, lesion: several types, types named in the paper, dosed 50 weeks, study length 104 weeks
  TD50: 0.934 mg/kg/day
rat, strain Fischer 344, males, by gavage, site: all sites, lesion: mesothelioma, dosed 50 weeks, study length 104 weeks
  TD50: 0.865 mg/kg/day
rat, strain Fischer 344, males, by gavage, site: forestomach, lesion: one or several types, types not named, dosed 50 weeks, study length 104 weeks
  carcinogen call: positive
rat, strain Fischer 344, males, by gavage, site: lung, lesion: several types, types named in the paper, dosed 50 weeks, study length 104 weeks
  TD50: 0.546 mg/kg/day

## C[C@H]1CCCC(=O)CCC/C=C/c2cc(O)cc(O)c2C(=O)O1
mouse, strain B6C3F1, females, in feed, site: any site (literature study), lesion: several types, types named in the paper, dosed 104 weeks, study length 105 weeks
  TD50: 17.9 mg/kg/day
mouse, strain B6C3F1, females, in feed, site: liver + pituitary gland, lesion: hepatocellular adenoma + hepatocellular carcinoma + adenoma, NOS + carcinoma, dosed 104 weeks, study length 105 weeks
  TD50: 22 mg/kg/day
mouse, strain B6C3F1, females, in feed, site: liver, lesion: hepatocellular adenoma + hepatocellular carcinoma + neoplastic nodule, dosed 104 weeks, study length 105 weeks
  TD50: 38.8 mg/kg/day
mouse, strain B6C3F1, females, in feed, site: liver, lesion: hepatocellular adenoma + hepatocellular carcinoma, dosed 104 weeks, study length 105 weeks
  TD50: 38.8 mg/kg/day
mouse, strain B6C3F1, females, in feed, site: liver, lesion: hepatocellular adenoma, dosed 104 weeks, study length 105 weeks
  TD50: 50.1 mg/kg/day
mouse, strain B6C3F1, females, in feed, site: pituitary gland, lesion: adenoma, NOS + carcinoma, dosed 104 weeks, study length 105 weeks
  TD50: 32.3 mg/kg/day
mouse, strain B6C3F1, females, in feed, site: pituitary gland, lesion: adenoma, NOS, dosed 104 weeks, study length 105 weeks
  TD50: 37.4 mg/kg/day
mouse, strain B6C3F1, males, in feed, site: pituitary gland, lesion: adenoma + carcinoma, dosed 104 weeks, study length 105 weeks
  TD50: 49.1 mg/kg/day
mouse, strain B6C3F1, males, in feed, site: pituitary gland, lesion: adenoma, dosed 104 weeks, study length 105 weeks
  TD50: 53.3 mg/kg/day
[1]
  TD50: 80.9 mg/kg/day (inactive)
rat, strain Fischer 344, females, in feed, site: liver, lesion: hepatocellular adenoma + hepatocellular carcinoma + neoplastic nodule, dosed 104 weeks, study length 104 weeks
  TD50: 33.5 mg/kg/day
rat, strain Fischer 344, males, in feed, site: any site (literature study), lesion: several types, types named in the paper, dosed 104 weeks, study length 104 weeks
  TD50: 16.2 mg/kg/day (inactive)
rat, strain Fischer 344, males, in feed, site: liver, lesion: hepatocellular adenoma + hepatocellular carcinoma + neoplastic nodule, dosed 104 weeks, study length 104 weeks
  TD50: 950 mg/kg/day

## Nc1nc(N)c2nc(-c3ccccc3)c(N)nc2n1
mouse, strain B6C3F1, females, in feed, site: any site (literature study), lesion: several types, types named in the paper, dosed 104 weeks, study length 104 weeks
  TD50: 132 mg/kg/day and 64.4 mg/kg/day
mouse, strain B6C3F1, females, in feed, site: liver, lesion: hepatocellular adenoma + hepatoblastoma + hepatocellular carcinoma, dosed 104 weeks, study length 104 weeks
  TD50: 51.3 mg/kg/day and 45.3 mg/kg/day
mouse, strain B6C3F1, females, in feed, site: liver, lesion: hepatocellular adenoma + hepatocellular carcinoma, dosed 104 weeks, study length 104 weeks
  TD50: 51.3 mg/kg/day and 45.3 mg/kg/day
mouse, strain B6C3F1, females, in feed, site: liver, lesion: hepatocellular adenoma, dosed 104 weeks, study length 104 weeks
  TD50: 46 mg/kg/day and 45.7 mg/kg/day
mouse, strain B6C3F1, males, in feed, site: Harderian gland, lesion: adenoma, dosed 104 weeks, study length 104 weeks
  TD50: 235 mg/kg/day
mouse, strain B6C3F1, males, in feed, site: any site (literature study), lesion: several types, types named in the paper, dosed 104 weeks, study length 104 weeks
  TD50: 205 mg/kg/day and 86.7 mg/kg/day
mouse, strain B6C3F1, males, in feed, site: liver, lesion: hepatocellular adenoma + hepatoblastoma + hepatocellular carcinoma, dosed 104 weeks, study length 104 weeks
  TD50: 169 mg/kg/day and 61.2 mg/kg/day
mouse, strain B6C3F1, males, in feed, site: liver, lesion: hepatocellular adenoma + hepatocellular carcinoma, dosed 104 weeks, study length 104 weeks
  TD50: 162 mg/kg/day and 61.2 mg/kg/day
mouse, strain B6C3F1, males, in feed, site: liver, lesion: hepatocellular adenoma, dosed 104 weeks, study length 104 weeks
  TD50: 54.8 mg/kg/day
mouse, strain B6C3F1, males, in feed, site: liver, lesion: hepatocellular carcinoma, dosed 104 weeks, study length 104 weeks
  TD50: 227 mg/kg/day
mouse, strain B6C3F1, males, in feed, site: lung, lesion: alveolar/bronchiolar adenoma + alveolar/bronchiolar carcinoma, dosed 104 weeks, study length 104 weeks
  TD50: 233 mg/kg/day and 265 mg/kg/day
[1]
  carcinogen call: negative (inactive)
rat, strain Fischer 344, females, in feed, site: liver, lesion: hepatocellular adenoma + hepatoblastoma + hepatocellular carcinoma, dosed 104 weeks, study length 104 weeks
  TD50: 520 mg/kg/day
rat, strain Fischer 344, males, in feed, site: liver, lesion: hepatocellular adenoma + hepatoblastoma + hepatocellular carcinoma, dosed 104 weeks, study length 104 weeks
  TD50: 11.8 mg/kg/day
rat, strain Fischer 344, males, in feed, site: liver, lesion: hepatocellular adenoma, dosed 104 weeks, study length 104 weeks
  TD50: 11.8 mg/kg/day

## O=C(O)c1ccccc1
mouse, strain Swiss albino, females, in drinking water, site: liver, lesion: one or several types, types not named, dosed 134 weeks, study length 134 weeks
  carcinogen call: negative (inactive)
mouse, strain Swiss albino, females, in drinking water, site: lung, lesion: one or several types, types not named, dosed 134 weeks, study length 134 weeks
  carcinogen call: negative (inactive)
mouse, strain Swiss albino, males, in drinking water, site: liver, lesion: hepatoma, dosed 113 weeks, study length 113 weeks
  TD50: 133000 mg/kg/day (inactive)
mouse, strain Swiss albino, males, in drinking water, site: lung, lesion: one or several types, types not named, dosed 113 weeks, study length 113 weeks
  carcinogen call: negative (inactive)
rat, strain Fischer 344, females, in feed, site: any site (literature study), lesion: malignant tumor, dosed 104 weeks, study length 108 weeks
  TD50: 104000 mg/kg/day (inactive)
rat, strain Fischer 344, females, in feed, site: any site (literature study), lesion: several types, types named in the paper, dosed 104 weeks, study length 108 weeks
  TD50: 24900 mg/kg/day (inactive)
rat, strain Fischer 344, males, in feed, site: any site (literature study), lesion: malignant tumor, dosed 104 weeks, study length 108 weeks
  carcinogen call: negative (inactive)
rat, strain Fischer 344, males, in feed, site: any site (literature study), lesion: several types, types named in the paper, dosed 104 weeks, study length 108 weeks
  carcinogen call: negative (inactive)

## Cc1ccc(C)c(OCCCC(C)(C)C(=O)O)c1
mouse, strain Charles River CD1, females, in feed, site: any site (literature study), lesion: several types, types named in the paper, dosed 78 weeks, study length 78 weeks
  TD50: 1690 mg/kg/day (inactive)
mouse, strain Charles River CD1, females, in feed, site: liver, lesion: hepatocellular adenoma, dosed 78 weeks, study length 78 weeks
  TD50: 6600 mg/kg/day (inactive)
mouse, strain Charles River CD1, females, in feed, site: lung, lesion: several types, types named in the paper, dosed 78 weeks, study length 78 weeks
  TD50: 11800 mg/kg/day (inactive)
mouse, strain Charles River CD1, males, in feed, site: any site (literature study), lesion: several types, types named in the paper, dosed 78 weeks, study length 78 weeks
  carcinogen call: negative (inactive)
mouse, strain Charles River CD1, males, in feed, site: liver, lesion: several types, types named in the paper, dosed 78 weeks, study length 78 weeks
  TD50: 1660 mg/kg/day (inactive)
mouse, strain Charles River CD1, males, in feed, site: lung, lesion: several types, types named in the paper, dosed 78 weeks, study length 78 weeks
  carcinogen call: negative (inactive)
rat, strain Charles River CD (Sprague-Dawley), females, in feed, site: any site (literature study), lesion: several types, types named in the paper, dosed 104 weeks, study length 104 weeks
  carcinogen call: negative (inactive)
rat, strain Charles River CD (Sprague-Dawley), females, in feed, site: liver, lesion: hepatocellular carcinoma, dosed 104 weeks, study length 104 weeks
  TD50: 504 mg/kg/day (inactive)
rat, strain Charles River CD (Sprague-Dawley), males, in feed, site: adrenal gland, lesion: pheochromocytoma, dosed 104 weeks, study length 104 weeks
  TD50: 85.9 mg/kg/day
rat, strain Charles River CD (Sprague-Dawley), males, in feed, site: any site (literature study), lesion: benign tumor, dosed 104 weeks, study length 104 weeks
  TD50: 196 mg/kg/day
rat, strain Charles River CD (Sprague-Dawley), males, in feed, site: any site (literature study), lesion: several types, types named in the paper, dosed 104 weeks, study length 104 weeks
  TD50: 202 mg/kg/day
rat, strain Charles River CD (Sprague-Dawley), males, in feed, site: liver, lesion: hepatocellular carcinoma, dosed 104 weeks, study length 104 weeks
  TD50: 247 mg/kg/day
rat, strain Charles River CD (Sprague-Dawley), males, in feed, site: pancreas, lesion: several types, types named in the paper, dosed 104 weeks, study length 104 weeks
  TD50: 161 mg/kg/day
rat, strain Charles River CD (Sprague-Dawley), males, in feed, site: testis, lesion: interstitial-cell tumor, dosed 104 weeks, study length 104 weeks
  TD50: 516 mg/kg/day
